Each structure is given as a SMILES string. Read-outs that look alike come from different tables or passages of the source.

The text below walks through data of patent publication US20080255236A1, “Methods and Composition Comprising 2-[(3-Chlorophenyl)Amino] Phenylacetic Acid for Alzheimer's Disease” (Glycadia, Inc., priority 2007, published 2008).

Series [1] can be described thus: Bioavailability of 23CPPA in male rats (oral vs intravenous). Format: in vivo. To be noted: rat, single dose oral 30 mg/kg vs intravenous 3.0 mg/kg, plasma LC-MS-MS. Here is the method: Male rats were given a single dose of 23CPPA by the oral route (30 mg/kg) or by the intravenous route (3.0 mg/kg). Timed samples of blood were collected before and after dosing, and plasma concentrations of the compound were determined with LC-MS-MS analysis.

The nature of series [2]: Plasma levels of 23CPPA following oral administration in rats. In kind it is in vivo, rat. The conditions noted are these: for AUC(0-t) / half-life: plasma, rat; for AUC(0-t) / Cmax / half-life: po; for AUC(0-t): read-out: AUC0-24; for Cmax: read-out: maximal concentration (Cmax). The method, then: Concentrations of compound in rat plasma were measured at timed intervals after administration by gavage of 25 and 75 mg per kilogram of body weight of the sodium salt of 23CPPA. […] Plasma concentrations of the compound readily declined after reaching maximal concentration and the elimination half-life (T^1/2) was about 2 hours. The extent of systemic exposure of animals to 23CPPA, characterized by the area under the curve from 0 to 24 hours after administration (AUC0-24), increased with increasing dosage, was approximately dose proportional, and encompassed levels representing therapeutic ranges.

Series [3] is described as follows: Brain and plasma levels of 23CPPA following oral administration in rats (HPLC/MS/MS). In kind it is in vivo. To be noted: rat; for concentration at 1 h: 1 hour after dose; for concentration at 4 h: 4 hours after dose; for concentration at 6 h: 6 hours after dose. The method, then: Rat hemi brains were obtained 1, 4 and 6 hours after administration by gavage of the sodium salt of 23CPPA at doses of 15 and 60 mg/kg and were mixed with two equivalents of water and homogenized. The resulting homogenate was extracted into acetonitrile containing internal standard and concentrations of the compound were analyzed by high pressure liquid chromatography/two stage mass spectrometry (HPLC/MS/MS). Plasma samples also were collected from the same rats at these time points for measurement of plasma concentrations of the compound.

Series [4] can be described thus: Plasma levels of 23CPPA after oral administration to humans. Format: in vivo, human. To be noted: for AUC(0-t): read-out: AUC0-24. The method, then: Plasma concentrations were measured at timed intervals after oral administration of a single dose of 50 to 1000 mg of the sodium salt of 23CPPA. […] The extent of systemic exposure of subjects to 23CPPA, characterized by the area under the curve from 0 to 24 hours after administration (AUC0-24), increased with increasing dosage from 50 to 1000 mg and was approximately dose proportional. The human pharmacokinetic findings closely resemble those in rats according to the human equivalent dose as shown in Example 2.

The subject of series [5] is Mammalian cell cultures expressing human Amyloid Protein Precursor (APP). Description: Production of Aβ40 and Aβ42 peptides in culture supernatants, enzyme-linked immunoassay. In kind it is cell-based. The conditions noted are these: sodium salt at 10, 50 and 100 micromolar, vs DMSO control. The method, then: FIG. 1 is a chart diagram representing an exemplary embodiment of 23CPPA lowering production of amyloidogenic Aβ42 peptide. Mammalian cell cultures expressing human Amyloid Protein Precursor (APP) were treated with the sodium salt of 23CPPA at concentrations of 10, 50 and 100 micromolar. The culture supernatants were analyzed by enzyme-linked immunoassay for the Aβ40 and Aβ42 peptides. Results were compared to control values obtained from cells treated with DMSO. […] Mammalian cell cultures expressing human Amyloid Protein Precursor (APP) were treated with the sodium salt of 23CPPA at concentrations of 10, 50 and 100 micromolar. The culture supernatants were analyzed by enzyme-linked immunoassay for the Aβ40 and Aβ42 peptides. Results were compared to control values obtained from cells treated with DMSO.

The next series deals with human hepatocytes. The series can be described thus: Metabolic conversion after incubation with human hepatocytes (mass spectrometry). Format: in vitro ADME. The method, then: After incubation of 23CPPA with human hepatocytes, samples were analyzed using mass spectrometry to establish metabolic conversion of the compound.
A further series has as its target COX1 (Homo sapiens, UniProt P23219). To be noted: background statement, no test described; cited from earlier work.
The next series deals with T1, COX2 (Homo sapiens, UniProt P35354).
T1 sequence (P35354 18-604): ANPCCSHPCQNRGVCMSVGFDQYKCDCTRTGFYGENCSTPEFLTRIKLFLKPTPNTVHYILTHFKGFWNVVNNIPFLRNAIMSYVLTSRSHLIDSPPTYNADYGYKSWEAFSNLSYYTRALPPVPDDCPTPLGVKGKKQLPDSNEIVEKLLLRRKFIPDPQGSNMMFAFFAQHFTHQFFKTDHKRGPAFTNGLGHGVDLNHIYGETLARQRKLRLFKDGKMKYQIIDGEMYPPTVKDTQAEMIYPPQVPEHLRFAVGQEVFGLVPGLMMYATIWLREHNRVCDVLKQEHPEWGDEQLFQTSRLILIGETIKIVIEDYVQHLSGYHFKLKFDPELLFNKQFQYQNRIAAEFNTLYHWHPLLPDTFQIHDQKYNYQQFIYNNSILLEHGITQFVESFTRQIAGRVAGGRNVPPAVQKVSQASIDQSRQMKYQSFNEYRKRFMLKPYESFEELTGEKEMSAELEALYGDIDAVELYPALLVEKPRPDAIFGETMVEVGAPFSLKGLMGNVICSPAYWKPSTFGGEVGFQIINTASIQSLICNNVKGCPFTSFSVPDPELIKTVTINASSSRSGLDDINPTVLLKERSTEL
The conditions noted are these: background statement, no test described; cited from earlier work.

The subject of a further series is diabetic rodents. To be noted: chronic administration, cited from earlier work.
For series [6] the following is noted: cited from earlier work.
The mark [7] stands for this setting: blood, gavage 15 mg/kg sodium salt, read-out: Blood concentration.
Where [8] appears, read: blood, gavage 60 mg/kg sodium salt, read-out: Blood concentration.
Setting [9] is: brain, gavage 15 mg/kg sodium salt, read-out: Brain concentration.
Setting [10] is: brain, gavage 60 mg/kg sodium salt, read-out: Brain concentration.

COX1, sequence (P23219 24-599): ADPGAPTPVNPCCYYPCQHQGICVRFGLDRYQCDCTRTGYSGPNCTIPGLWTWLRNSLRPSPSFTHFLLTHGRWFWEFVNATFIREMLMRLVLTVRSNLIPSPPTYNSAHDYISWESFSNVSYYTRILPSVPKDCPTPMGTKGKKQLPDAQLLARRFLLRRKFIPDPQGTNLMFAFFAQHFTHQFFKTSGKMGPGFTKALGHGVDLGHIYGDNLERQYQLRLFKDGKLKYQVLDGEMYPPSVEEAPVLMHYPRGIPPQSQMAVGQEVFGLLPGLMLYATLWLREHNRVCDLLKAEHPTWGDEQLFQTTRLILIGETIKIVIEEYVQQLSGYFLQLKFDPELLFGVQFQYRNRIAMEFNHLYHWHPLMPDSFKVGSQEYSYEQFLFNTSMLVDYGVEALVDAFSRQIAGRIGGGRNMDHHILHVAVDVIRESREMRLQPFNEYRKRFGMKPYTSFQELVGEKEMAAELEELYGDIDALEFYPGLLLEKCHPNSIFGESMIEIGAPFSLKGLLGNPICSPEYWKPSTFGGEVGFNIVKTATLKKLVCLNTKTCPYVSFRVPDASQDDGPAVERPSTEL

`O=C(O)Cc1ccccc1Nc1cccc(Cl)c1` [23CPPA, 2-[(3-chlorophenyl)amino]phenylacetic acid] displayed a bioavailability in [1] of 85%. For the same compound, the AUC(0-t) is 26600 ng·h/mL in [2] (gavage 25 mg/kg body wt. sodium salt); 94000 ng·h/mL in series [2] (gavage 75 mg/kg body wt. sodium salt); 4480 ng·h/mL in series [4] (plasma, human, single oral dose 50 mg (0.7 mg/kg body wt)); 11000 ng·h/mL in series [4] (plasma, human, single oral dose 100 mg (1.3 mg/kg body wt)); 27300 ng·h/mL in [4] (plasma, human, single oral dose 250 mg (3.0 mg/kg body wt)); 54000 ng·h/mL in series [4] (plasma, human, single oral dose 500 mg (6.0 mg/kg body wt)). For the same compound, the AUC(0-t) came to 66600 ng·h/mL in series [4] (plasma, human, single oral dose 750 mg (9.0 mg/kg body wt)) and 100000 ng·h/mL in series [4] (plasma, human, single oral dose 1000 mg (12.3 mg/kg body wt)). In addition, the Cmax in series [2] (rat plasma, gavage 25 mg/kg sodium salt) is 9500 ng/mL; in series [2] (rat plasma, gavage 75 mg/kg sodium salt), 25000 ng/mL; in series [4] (human plasma, single oral dose of 50 to 1000 mg sodium salt, read-out: maximal concentrations (Cmax)), 200 to 15600 ng/mL. In addition, the “Time of maximal concentration (Tmax)” value in series [2] (rat plasma, gavage 25 and 75 mg/kg sodium salt) is listed as “within one hour”. For the same compound, the half-life in [2] (25 mg/kg, gavage 25 mg/kg body wt. sodium salt, read-out: T1/2 (converted)) was 2.45 h; in series [2] (75 mg/kg, rat plasma, gavage 25 and 75 mg/kg sodium salt, read-out: elimination half-life (T1/2) (converted)) it was ~2 h; in [2] (75 mg/kg, gavage 75 mg/kg body wt. sodium salt, read-out: T1/2 (converted)), 1.95 h; in series [4] (plasma, human, single oral dose 50 mg (0.7 mg/kg body wt), read-out: T1/2 (converted)), 1.55 h; in series [4] (plasma, human, single oral dose 100 mg (1.3 mg/kg body wt), read-out: T1/2 (converted)), 1.5 h; in series [4] (plasma, human, single oral dose 250 mg (3.0 mg/kg body wt), read-out: T1/2 (converted)), 1.35 h. The half-life is 1.5 h in series [4] (plasma, human, single oral dose 500 mg (6.0 mg/kg body wt), read-out: T1/2 (converted)); 2.33 h in series [4] (plasma, human, single oral dose 750 mg (9.0 mg/kg body wt), read-out: T1/2 (converted)); 2.38 h in series [4] (plasma, human, single oral dose 1000 mg (12.3 mg/kg body wt), read-out: T1/2 (converted)); 1.77 h in series [4] (plasma, human, single oral dose 50 to 1000 mg sodium salt, read-out: mean elimination half-life (T1/2) (converted)). The concentration at 1 h in series [3] (setting [7]) worked out at 27 µM; in series [3] (setting [8]), 57 µM; in series [3] (setting [9]) it was 76 µM; in [3] (setting [10]), 148 µM. For the same compound, the concentration at 4 h turned out to be 4 µM in series [3] (setting [7]), 28 µM in series [3] (setting [8]), 12.4 µM in series [3] (setting [9]) and 61 µM in series [3] (setting [10]). Moreover, the concentration at 6 h turned out to be 3 µM in series [3] (setting [7]), 22 µM in series [3] (setting [8]), 11.9 µM in series [3] (setting [9]) and 45 µM in series [3] (setting [10]). For the same compound, the Tmax in series [4] (plasma, human, all dosage groups, single oral dose 50 to 1000 mg sodium salt, read-out: mean time of maximal concentration (Tmax)) turned out to be 1.74 h. For the same compound, in series [5], the “amount of Aβ40” value was “without proportionate change”. Besides, in series [5], the “amount of Aβ42” value is on record as “dose-dependent reduction”. Also, in series [5], the “total Aβ values” is recorded as “without proportionate change”. Besides, in the series on human hepatocytes (incubation with human hepatocytes, mass spectrometry), the conversion products identified result was “hydroxylation and loss of water products and glucuronide conjugates”. Besides, the “conversion to COX-inhibitory compound” value in the series on human hepatocytes (structures of conversion products from human hepatocytes) is given as “none of which had structures compatible with COX-inhibitory activity”. For the same compound, the “inhibition of cyclooxygenase enzyme COX1” value at COX1 is listed as “is not a pharmacologic inhibitor”. The “inhibition of cyclooxygenase enzyme COX2” value on COX2 was “is not a pharmacologic inhibitor”. For the same compound, the “concentration of glycated albumin” value in the series with diabetic rodents (persistent hyperglycemia) is on record as “lowers the concentration of glycated albumin”. For the same compound, the “structural and functional abnormalities characteristic of diabetic kidney disease” value with diabetic rodents is “ameliorates the structural and functional abnormalities”.

On to `C[C@@H](C(=O)O)c1ccc(-c2ccccc2)c(F)c1` [R-flurbiprofen], for which the “fraction converted in vivo to S-flurbiprofen” value in series [6] is recorded as 22-30%.

One may read the bioavailability as the share of a dose that reaches the circulation, judged against a reference dose that is usually intravenous. The low end stands for poor availability, the high end for good availability.
